Measurements taken from patent US4616081A, “Cephalosporin compounds” (Asahi Kasei Kogyo Kabushiki Kaisha, priority 1982, dated 1986).

Key:
Staph. aureus ATCC 6538P = experiment: MIC against Staph. aureus ATCC 6538P; assay type: cell-based
Method: (§1) Nextly, antibacterial activity or minimum inhibitory concentration (MIC) was measured and the results are shown in Table 1 with respect to the following representative compounds according to the present invention. [drawing 19]
(§2) With respect to Compound Nos. 14 and 15, antibacterial activity or minimum inhibitory concentration (MIC) was measured and the results are shown in Table 2. [drawing 21]

Staph. aureus MS27 = experiment: MIC against Staph. aureus MS27; assay type: cell-based
Method: as §1, §2

Sarcina lutea ATCC 9341 = experiment: MIC against Sarcina lutea ATCC 9341; assay type: cell-based
Method: as §1, §2

E. coli NIHJ-JC2 = experiment: MIC against E. coli NIHJ-JC2; assay type: cell-based
Method: as §1, §2

E. coli W3630 = experiment: MIC against E. coli W3630; assay type: cell-based
Method: as §1, §2

E. coli W3630 PS3 = experiment: MIC against E. coli W3630 PS3; assay type: cell-based
Method: as §1, §2

[1] = tested on: Citrobact. freundii GN346; experiment: MIC against Citrobact. freundii GN346; assay type: cell-based
Method: as §1, §2

[2] = tested on: Klebs. pneumoniae ATCC 10031; experiment: MIC against Klebs. pneumoniae ATCC 10031; assay type: cell-based
Method: as §1, §2

[3] = tested on: Salm. enteritidis Gaertner; experiment: MIC against Salm. enteritidis Gaertner; assay type: cell-based
Method: as §1, §2

Shigella sonnei E33 = experiment: MIC against Shigella sonnei E33; assay type: cell-based
Method: as §1, §2

Proteus morganii 0239 = experiment: MIC against Proteus morganii 0239; assay type: cell-based
Method: as §1, §2

[4] = tested on: Enterobact. aerogenes 0655; experiment: MIC against Enterobact. aerogenes 0655; assay type: cell-based
Method: as §1, §2

[5] = tested on: Enterobact. cloacae GN336; experiment: MIC against Enterobact. cloacae GN336; assay type: cell-based
Method: as §1, §2

Serratia marcescens = experiment: MIC against Serratia marcescens; assay type: cell-based
Method: as §1, §2

Staph. pyogenes NY5 = experiment: MIC against Staph. pyogenes NY5; assay type: cell-based
[6] = acute toxicity test using mice, intraperitoneal; conditions: mouse, in vivo, ip
Source text: In addition to excellent antibacterial activity, the compounds of the present invention are low in toxicity. For example, in acute toxicity test using mice, the following results were obtained with Compound Nos. 2, 3, 7, 14, 15 and 23 which were intraperitoneally administered.

[7] = maximum blood concentration after oral administration in Wister rats (HPLC and Bioassay); assay type: in vivo; conditions: Wister rat, fasted, 30 mg/kg, solution of pH 7 in phosphate buffer
Method: Further in the compounds according to the present invention, intestinal absorption is improved by the introduction of amino acids at the 3-position thereof. For example, comparison of the maximum blood concentration of the Compound Nos. 2, 3, 7, 8, 14, 15 and 23 with that of Comparative Compound (b) establishes and affirms the effects, as is shown below. In the above test, the method for measurement of blood concentration was as follows. Rate: Wister rat weighing 170 to 220 g Dose: 30 mg/kg Wister rats were fasted from the previous night but freely accessible to water. Each of drugs was administered as a solution of pH 7 in a phosphate buffer, when orally administered. The blood concentration was measured in accordance with the High Performance Liquid Chromatography (HPLC) method and the Bioassay method by using E. coli as bacteria for test.

Strept. pyogenes NY5 = experiment: MIC against Strept. pyogenes NY5; assay type: cell-based; conditions: Bacterial count inoculated 10^6 cells/ml
Method: as §1, §2

Proteus rettgeri ACR = experiment: MIC against Proteus rettgeri ACR; assay type: cell-based; conditions: Bacterial count inoculated 10^6 cells/ml
Method: as §1, §2

Ps. aeruginosa 0812 M2 = experiment: MIC against Ps. aeruginosa 0812 M2; assay type: cell-based; conditions: Bacterial count inoculated 10^6 cells/ml
Method: as §1, §2

[8] = Bacterial count inoculated 10^6 cells/ml
[9] = Bacterial count inoculated 10^8 cells/ml

SMILES	Minimum Inhibitory Concentration (MIC) (Staph. aureus ATCC 6538P; [8])	Minimum Inhibitory Concentration (MIC) (Staph. aureus ATCC 6538P; [9])	Minimum Inhibitory Concentration (MIC) (Staph. aureus MS27; [8])	Minimum Inhibitory Concentration (MIC) (Staph. aureus MS27; [9])	Minimum Inhibitory Concentration (MIC) (Sarcina lutea ATCC 9341; [8])	Minimum Inhibitory Concentration (MIC) (Sarcina lutea ATCC 9341; [9])	Minimum Inhibitory Concentration (MIC) (E. coli NIHJ-JC2; [8])	Minimum Inhibitory Concentration (MIC) (E. coli NIHJ-JC2; [9])	Minimum Inhibitory Concentration (MIC) (E. coli W3630; [8])	Minimum Inhibitory Concentration (MIC) (E. coli W3630; [9])	Minimum Inhibitory Concentration (MIC) (E. coli W3630 PS3; [8])	Minimum Inhibitory Concentration (MIC) (E. coli W3630 PS3; [9])	Minimum Inhibitory Concentration (MIC) [1, 8]	Minimum Inhibitory Concentration (MIC) [2, 8]	Minimum Inhibitory Concentration (MIC) [3, 8]	Minimum Inhibitory Concentration (MIC) (Shigella sonnei E33; [8])	Minimum Inhibitory Concentration (MIC) (Proteus morganii 0239; [8])	Minimum Inhibitory Concentration (MIC) [4, 8]	Minimum Inhibitory Concentration (MIC) [5, 8]	Minimum Inhibitory Concentration (MIC) (Serratia marcescens; [8])	also measured
CO/N=C(\C(=O)N[C@@H]1C(=O)N2C(C(=O)O)=C(CSc3nnc(CC(N)C(=O)O)s3)CS[C@H]12)c1csc(N)n1 (stereo partly drawn) [Compound No. 7]	1.6	3.1	3.1	3.1	≤ 0.2	≤ 0.2	0.4	0.2	≤ 0.2	0.8	≤ 0.2	1.6	50	≤ 0.2	≤ 0.2	≤ 0.2	≤ 0.2	≤ 0.2	≤ 0.2	≤ 0.2	Minimum Inhibitory Concentration (MIC) [1, 9]: 100; Minimum Inhibitory Concentration (MIC) [2, 9]: 0.8; Minimum Inhibitory Concentration (MIC) [3, 9]: 3.1; Minimum Inhibitory Concentration (MIC) (Shigella sonnei E33; [9]): 0.2; Minimum Inhibitory Concentration (MIC) (Proteus morganii 0239; [9]): 25; Minimum Inhibitory Concentration (MIC) [4, 9]: 25; Minimum Inhibitory Concentration (MIC) [5, 9]: 12.5; Minimum Inhibitory Concentration (MIC) (Serratia marcescens; [9]): 100; Minimum Inhibitory Concentration (MIC) (Staph. pyogenes NY5; [8]): ≤ 0.2; Minimum Inhibitory Concentration (MIC) (Staph. pyogenes NY5; [9]): 0.2; LD50 [6]: 9000 to 12000 mg/kg; Cmax [7]: 7000 ng/mL
CO/N=C(\C(=O)N[C@@H]1C(=O)N2C(C(=O)O)=C(CSc3nc(C(=O)O)c(N)n3C)CS[C@H]12)c1csc(N)n1 [Compound No. 2]	3.1		6.3		0.2		0.2		0.2		0.2		25	0.1	0.2	0.4	0.1	1.6	0.8	0.2	Minimum Inhibitory Concentration (MIC) (Strept. pyogenes NY5): 0.1; Minimum Inhibitory Concentration (MIC) (Proteus rettgeri ACR): 0.2; Minimum Inhibitory Concentration (MIC) (Ps. aeruginosa 0812 M2): 6.3; LD50 [6]: 9000 to 10000 mg/kg; Cmax [7]: 16000 ng/mL
CCN1CCN(C(=O)NC(C(=O)NC2C(=O)N3C(C(=O)O)=C(CSc4nnnn4C)CSC23)c2ccc(O)cc2)C(=O)C1=O (stereo not drawn) [Comparative Compound (c), reference compound]	1.6	1.6	3.1	50	≤ 0.2	≤ 0.2	≤ 0.2	6.3	0.4	25	≤ 0.2	25	50	≤ 0.2	0.4	≤ 0.2	0.8	0.8	≤ 0.2	0.8	Minimum Inhibitory Concentration (MIC) [1, 9]: > 100; Minimum Inhibitory Concentration (MIC) [2, 9]: > 100; Minimum Inhibitory Concentration (MIC) [3, 9]: 50; Minimum Inhibitory Concentration (MIC) (Shigella sonnei E33; [9]): ≤ 0.2; Minimum Inhibitory Concentration (MIC) (Proteus morganii 0239; [9]): > 100; Minimum Inhibitory Concentration (MIC) [4, 9]: > 100; Minimum Inhibitory Concentration (MIC) [5, 9]: 50; Minimum Inhibitory Concentration (MIC) (Serratia marcescens; [9]): > 100; Minimum Inhibitory Concentration (MIC) (Staph. pyogenes NY5; [8]): ≤ 0.2; Minimum Inhibitory Concentration (MIC) (Staph. pyogenes NY5; [9]): 0.4
